Drawing on ChEMBL document CHEMBL3508693 (2016), this text covers Compound recovery for two compounds.

Data set [1] in a line: % aliskiren hemifumarate recovered as M6 from M4 in urine following single oral dose of 300 mg [14C]SPP100 studied in healthy men. In kind it is ADME, organism-based. The conditions noted are these: human, in vivo, at 300 mg.
A short description of data set [2]: % aliskiren hemifumarate recovered as M6 from M4 in faeces following single oral dose of 300 mg [14C]SPP100 studied in healthy men. Format: ADME, organism-based, Feces. The conditions noted are these: human, in vivo.
Data set [3] is described as follows: % aliskiren hemifumarate recovered as M6 from M4 in urine and faeces following single oral dose of 300 mg [14C]SPP100 studied in healthy men. Format: ADME, organism-based, Urine/Feces. The conditions noted are these: human, in vivo, at 300 mg.
A short description of data set [4]: % aliskiren recovered as M6 from M4 in bile following single intravenous administration of 10 mg.Kg-1 [14C] aliskiren hemifumarate in male rat. Format: ADME, organism-based, HAN:WIST(SPF). The conditions noted are these: in vivo.
Data set [5] in a line: % aliskiren recovered as M6 from M4 in hydrolysed following single intravenous administration of 10 mg.Kg-1 [14C] aliskiren hemifumarate in male rat. In kind it is ADME, organism-based, HAN:WIST(SPF), Bile. The conditions noted are these: in vivo.
Data set [6] is described as follows: % aliskiren recovered as M6 from M4 in urine following single intravenous administration of 10 mg.Kg-1 [14C] aliskiren hemifumarate in male rat. Format: ADME, organism-based, HAN:WIST(SPF). The conditions noted are these: in vivo.
The nature of data set [7]: % aliskiren recovered as M6 from M4 of receiver rat following duodenal infusion of radioactivity through bile from donor rat treated with single intravenous administration of 10 mg.Kg-1 [14C] aliskiren hemifumarate. In kind it is ADME, organism-based, HAN:WIST(SPF). The conditions noted are these: in vivo.
Data set [8] is described as follows: % of radioactivity recovered as M6 from M4 in plasma following oral administration of [14C] aliskiren hemifumarate at 100 mg.Kg-1 level in rat. The conditions noted are these: in vivo. In kind it is ADME, organism-based, Albino HAN:WIST.
Data set [9] is described as follows: % of radioactivity recovered as M6 from M4 in urine following oral administration of [14C] aliskiren hemifumarate at 100 mg.Kg-1 level in rat. In kind it is ADME, organism-based, Albino HAN:WIST. The conditions noted are these: in vivo.
Data set [10] is described as follows: % of radioactivity recovered as M6 from M4 in faeces following oral administration of [14C] aliskiren hemifumarate at 100 mg.Kg-1 level in rat. The conditions noted are these: in vivo. Format: ADME, organism-based, Albino HAN:WIST, Feces.
Data set [11] can be described thus: % of radioactivity recovered as M6 from M4 in plasma following intravenous administration of [14C] aliskiren hemifumarate at 10 mg.Kg-1 level in rat. In kind it is ADME, organism-based, Albino HAN:WIST. The conditions noted are these: in vivo.
Data set [12] can be described thus: % of radioactivity recovered as M6 from M4 in urine following intravenous administration of [14C] aliskiren hemifumarate at 10 mg.Kg-1 level in rat. In kind it is ADME, organism-based, Albino HAN:WIST. The conditions noted are these: in vivo.
A short description of data set [13]: % of radioactivity recovered as M6 from M4 in faeces following intravenous administration of [14C] aliskiren hemifumarate at 10 mg.Kg-1 level in rat. The conditions noted are these: in vivo. In kind it is ADME, organism-based, Albino HAN:WIST, Feces.
The nature of data set [14]: % aliskiren recovered as metabolite M6 in plasma following 10 day repeated oral administration of [14C] aliskiren hemifumarate at 100 mg.Kg-1 level studied in rat. In kind it is ADME, organism-based, Albino HAN:WIST. The conditions noted are these: in vivo, 240 h.
Data set [15] is described as follows: % aliskiren recovered as metabolite M6 in urine following 10 day repeated oral administration of [14C] aliskiren hemifumarate at 100 mg.Kg-1 level studied in rat. In kind it is ADME, organism-based, Albino HAN:WIST. The conditions noted are these: in vivo, 240 h.
Data set [16] is described as follows: % aliskiren recovered as metabolite M6 in faeces following 10 day repeated oral administration of [14C] aliskiren hemifumarate at 100 mg.Kg-1 level studied in rat. The conditions noted are these: in vivo, 240 h. In kind it is ADME, organism-based, Albino HAN:WIST, Feces.
A short description of data set [17]: % aliskiren recovered as M5 from M1 in bile following single intravenous administration of 10 mg.Kg-1 [14C] aliskiren hemifumarate in male rat. In kind it is ADME, organism-based, HAN:WIST(SPF). The conditions noted are these: in vivo.
A short description of data set [18]: % aliskiren recovered as M5 from M1 in hydrolysed following single intravenous administration of 10 mg.Kg-1 [14C] aliskiren hemifumarate in male rat. In kind it is ADME, organism-based, HAN:WIST(SPF), Bile. The conditions noted are these: in vivo.
Data set [19] is described as follows: % aliskiren recovered as M5 from M1 in urine following single intravenous administration of 10 mg.Kg-1 [14C] aliskiren hemifumarate in male rat. Format: ADME, organism-based, HAN:WIST(SPF). The conditions noted are these: in vivo.
The nature of data set [20]: % aliskiren recovered as M5 from M1 of receiver rat following duodenal infusion of radioactivity through bile from donor rat treated with single intravenous administration of 10 mg.Kg-1 [14C] aliskiren hemifumarate. Format: ADME, organism-based, HAN:WIST(SPF). The conditions noted are these: in vivo.
A short description of data set [21]: % of radioactivity recovered as M5 from M1 in plasma following oral administration of [14C] aliskiren hemifumarate at 100 mg.Kg-1 level in rat. Format: ADME, organism-based, Albino HAN:WIST. The conditions noted are these: in vivo.
A short description of data set [22]: % of radioactivity recovered as M5 from M1 in urine following oral administration of [14C] aliskiren hemifumarate at 100 mg.Kg-1 level in rat. Format: ADME, organism-based, Albino HAN:WIST. The conditions noted are these: in vivo.
The nature of data set [23]: % of radioactivity recovered as M5 from M1 in faeces following oral administration of [14C] aliskiren hemifumarate at 100 mg.Kg-1 level in rat. Format: ADME, organism-based, Albino HAN:WIST, Feces. The conditions noted are these: in vivo.
Data set [24] can be described thus: % of radioactivity recovered as M5 from M1 in plasma following intravenous administration of [14C] aliskiren hemifumarate at 10 mg.Kg-1 level in rat. Format: ADME, organism-based, Albino HAN:WIST. The conditions noted are these: in vivo.
A short description of data set [25]: % of radioactivity recovered as M5 from M1 in urine following intravenous administration of [14C] aliskiren hemifumarate at 10 mg.Kg-1 level in rat. In kind it is ADME, organism-based, Albino HAN:WIST. The conditions noted are these: in vivo.
Data set [26] in a line: % of radioactivity recovered as M5 from M1 in faeces following intravenous administration of [14C] aliskiren hemifumarate at 10 mg.Kg-1 level in rat. The conditions noted are these: in vivo. Format: ADME, organism-based, Albino HAN:WIST, Feces.

Where only a bound is given, the exact number is not on record here.

Regarding `COc1ccc(C[C@@H](C[C@H](N)[C@@H](O)C[C@H](C(=O)NCC(C)(C)C(N)=O)C(C)C)C(C)C)cc1O[C@@H]1O[C@H](CO)[C@@H](O)[C@H](O)[C@H]1O`, the Compound recovery in data set [1] is reported as under 0.1%; in data set [2] it was “OUTCOME = Not detected”; in data set [3] it was under 0.1%; in [4], 5%; in [5] it was “OUTCOME = Not detected”; in data set [6], 3.2%. Besides, the Compound recovery is listed as 8.9% in data set [7]; over 2% in data set [8]; “<= 2%” in [9]; “OUTCOME = Not detected or not investigated” in [10]; “<= 2%” in data set [11]; “OUTCOME = Not detected or not investigated” in data set [12]. The Compound recovery result is given as “OUTCOME = Not detected or not investigated” in data set [13]; “OUTCOME = Observed, VALUE = Minor amounts” in [14]; “OUTCOME = Observed, VALUE = Minor amounts” in data set [15]; “OUTCOME = Observed, VALUE = Minor amounts” in data set [16].
For the compound `COCCCOc1cc(C[C@@H](C[C@H](N)[C@@H](O)C[C@H](C(=O)NCC(C)(C)C(N)=O)C(C)C)C(C)C)ccc1O[C@@H]1O[C@H](CO)[C@@H](O)[C@H](O)[C@H]1O`, the Compound recovery was 5% in data set [17]; “OUTCOME = Not detected” in [18]; 3.2% in data set [19]; 8.9% in data set [20]; over 2% in [21]; “<= 2%” in data set [22]. Besides, the Compound recovery entry in data set [23] is “OUTCOME = Not detected or not investigated”; in data set [24] it was “<= 2%”; in [25], “OUTCOME = Not detected or not investigated”; in data set [26] it was “OUTCOME = Not detected or not investigated”.
